# Test results published in publication PMC3124361 (Journal of medicinal chemistry, 2011).
# pIC50: −log10 of the molar value. Several values for one entry are separate records, joined by “and”; a condition that tells them apart may be missing. Equal entries are not always repeated. Where two headings read alike, the source gives them in different places.
# Columns and labels:
# [1] = biological target: human albumin (Homo sapiens, UniProt P02768); test: Protein binding estimated on human albumin column; format: in vitro ADME; details: human albumin chromatographic method
# human albumin, sequence (P02768 25-609): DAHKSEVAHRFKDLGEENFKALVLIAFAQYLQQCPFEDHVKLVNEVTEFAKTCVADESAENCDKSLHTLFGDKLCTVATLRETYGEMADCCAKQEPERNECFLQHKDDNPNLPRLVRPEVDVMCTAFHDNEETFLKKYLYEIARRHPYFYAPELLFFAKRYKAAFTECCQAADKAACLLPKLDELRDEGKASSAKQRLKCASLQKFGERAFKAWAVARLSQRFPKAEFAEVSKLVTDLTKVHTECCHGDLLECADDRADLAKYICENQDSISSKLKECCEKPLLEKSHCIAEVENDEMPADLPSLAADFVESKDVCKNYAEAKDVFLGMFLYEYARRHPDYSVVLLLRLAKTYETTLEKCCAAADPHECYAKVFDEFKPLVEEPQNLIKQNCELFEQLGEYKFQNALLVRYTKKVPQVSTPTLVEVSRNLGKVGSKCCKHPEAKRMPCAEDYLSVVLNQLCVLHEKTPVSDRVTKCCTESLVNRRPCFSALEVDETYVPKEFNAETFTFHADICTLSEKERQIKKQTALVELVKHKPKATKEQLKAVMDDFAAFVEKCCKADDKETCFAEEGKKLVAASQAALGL
# [2] = Non-equilibrium solubility by nephelometry, pH 6.5; format: physicochemical; details: for solubility: phosphate buffer
# [3] = test system: P. berghei NK65 ANKA strain; details: cited from earlier work
# [4] = ref [13], [15], cited from earlier work
# [5] = In vitro metabolism in human liver microsomes; format: in vitro ADME; details: for Eh Human: predicted hepatic extraction ratio; for microsomal CLint at 1 μM: microsomes, pH 7.4
# [6] = Mouse systemic exposure after single oral dose; format: in vivo; details: single oral dose 20 mg/kg, plasma
# [7] = In vitro metabolism in mouse liver microsomes; format: in vitro ADME; details: for Eh Mouse: predicted hepatic extraction ratio; for microsomal CLint at 1 μM: microsomes, pH 7.4
# [8] = biological target: T1, PfDHODH (Plasmodium falciparum, UniProt Q08210); test: PfDHODH DCIP dye-based enzyme assay; format: biochemical; details: for pIC50: IC50 PfDHODH
# T1 sequence (Q08210 158-569 limits assumed): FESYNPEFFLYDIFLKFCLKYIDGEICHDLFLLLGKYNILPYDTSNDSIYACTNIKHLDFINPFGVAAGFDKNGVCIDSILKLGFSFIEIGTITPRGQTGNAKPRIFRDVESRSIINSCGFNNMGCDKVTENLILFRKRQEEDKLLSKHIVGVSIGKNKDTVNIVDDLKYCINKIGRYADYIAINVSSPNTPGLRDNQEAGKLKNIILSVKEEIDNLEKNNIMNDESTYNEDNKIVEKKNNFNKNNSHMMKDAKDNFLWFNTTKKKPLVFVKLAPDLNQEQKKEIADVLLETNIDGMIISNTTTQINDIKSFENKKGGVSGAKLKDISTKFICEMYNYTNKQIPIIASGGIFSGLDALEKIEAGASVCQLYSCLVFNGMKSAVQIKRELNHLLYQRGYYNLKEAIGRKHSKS
# [9] = test system: P. berghei NK65 ANKA strain; test: Peter's test, P. berghei efficacy in mice; format: in vivo, Plasmodium berghei
# [10] = Rat pharmacokinetics after IV and oral administration; format: in vivo; details: for clearance: male, Sprague Dawley, in vivo, iv
# [11] = test system: rat plasma proteins; test: Protein binding in rat plasma by ultracentrifugation; format: in vitro ADME; details: 37°C
SMILES,Human Plasma Binding [1],solubility [2],Eh Human [5],aqueous solubility at pH 6.5 (in words) [2],Eh Mouse [7],microsomal CLint at 1 μM [5],microsomal CLint at 1 μM [7],other results
"Cc1cc(Nc2ccc(C(F)(F)F)cc2)n2ncnc2n1 [Compound 2, (5-methyl-[1,2,4]triazolo[1,5-a]pyrimidin-7-yl)-(4-trifluoromethyl-phenyl)-amine]",86.9%,21 to 43 µM,,,,,,"suppression of parasitemia ([3]; 50 mg/kg BID, 24 h after the last dose, ref [15]): 90%; CLint Human ([4]; human liver microsomes, reported previously): 8/ND ^a μL/min/mg protein; Eh Human ([4]; predicted hepatic extraction ratio, human): 0.29/ND ^a"
"CCc1ccc(Nc2cc(C)nc3ncnn23)cc1 [Compound 7, N-(4-Ethylphenyl)-5-methyl-[1,2,4]triazolo[1,5-a]pyrimidin-7-amine]",88.0%,25 to 50 µM,0.77/ND,,,,,
"CCCc1ccc(Nc2cc(C)nc3ncnn23)cc1 [Compound 8, N-(4-Propylphenyl)-5-methyl-[1,2,4]triazolo[1,5-a]pyrimidin-7-amine]",93.5%,187 to 374 µM,0.66/ND,highly soluble,,,,
"CCCCc1ccc(Nc2cc(C)nc3ncnn23)cc1 [Compound 9, N-(4-Butylphenyl)-5-methyl-[1,2,4]triazolo[1,5-a]pyrimidin-7-amine]",96.7%,11 to 22 µM,0.67/ND,poorly soluble,,,,
"Cc1cc(Nc2ccc(C(C)C)cc2)n2ncnc2n1 [Compound 14, N-(4-Isopropylphenyl)-5-methyl-[1,2,4]triazolo[1,5-a]pyrimidin-7-amine]",91.3%,47 to 94 µM,0.64,,0.91,,,Time above 1 μM [6]: <1 h
"Cc1cc(Nc2ccc(C(C)(C)C)cc2)n2ncnc2n1 [Compound 15, N-(4-tert-Butylphenyl)-5-methyl-[1,2,4]triazolo[1,5-a]pyrimidin-7-amine]",93.2%,11 to 22 µM,,poorly soluble,,> 30 µL/min/mg,> 30 µL/min/mg,pIC50 ([8]; stated in text): > 7.00
"Cc1cc(Nc2ccc(C3CC3)cc2)n2ncnc2n1 [Compound 16, N-(4-Cyclopropylphenyl)-5-methyl-[1,2,4]triazolo[1,5-a]pyrimidin-7-amine]",86.8%,,0.75,highly soluble,0.93,,,
"C=Cc1ccc(Nc2cc(C)nc3ncnn23)cc1 [Compound 17, N-(4-Vinylphenyl)-5-methyl-[1,2,4]triazolo[1,5-a]pyrimidin-7-amine]",84.4%,25 to 50 µM,0.64,,0.88,,,
"C#Cc1ccc(Nc2cc(C)nc3ncnn23)cc1 [Compound 18, N-(4-Ethynylphenyl)-5-methyl-[1,2,4]triazolo[1,5-a]pyrimidin-7-amine]",81.8%,100 to 200 µM,0.31,,0.54,< 10 µL/min/mg,> 25 µL/min/mg,
"Cc1cc(Nc2ccc(SC(F)(F)F)cc2)n2ncnc2n1 [Compound 20, 5-Methyl-N-(4-(trifuoromethylthio)phenyl)-[1,2,4]triazolo[1,5-a]pyrimidin-7-amine]",96.1%,5 to 10 µM,< 0.2,poorly soluble,0.84,< 10 µL/min/mg,> 25 µL/min/mg,
"Cc1cc(Nc2ccc(N(C)C)cc2)n2ncnc2n1 [Compound 23, N^1,N^1-Dimethyl-N^4-(5-methyl-[1,2,4]triazolo[1,5-a]pyrimidin-7-yl)benzene-1,4-diamine]",,93 to 186 µM,0.4,,0.91,,,fold less potent / increase of PfDHODH IC50 over 14 ([8]; comparator 14): 4 fold
"Cc1cc(Nc2ccc(C(C)(C)C)c(F)c2)n2ncnc2n1 [Compound 29, N-(4-tert-Butyl-3-fluorophenyl)-5-methyl-[1,2,4]triazolo[1,5-a]pyrimidin-7-amine]",96.4%,,,poorly soluble,,> 30 µL/min/mg,> 30 µL/min/mg,pIC50 ([8]; stated in text): > 7.00 and ~7.52; fold decrease in PfDHODH IC50 vs 15 ([8]; comparator 15): 2 fold; Time above 1 μM [6]: <1 h
"Cc1cc(Nc2cc(F)c(C(F)(F)F)c(F)c2)n2ncnc2n1 [Compound 32, N-(3,5-difluoro-4-(trifluoromethyl)phenyl)-5-methyl-[1,2,4]triazolo[1,5-a]pyrimidin-7-amine]",96.6%,9 to 18 µM,<0.2/<0.2,poorly soluble,<0.2/<0.2,< 6 µL/min/mg,,"pIC50 [8]: > 6.52; parasite clearance (in words) ([9]; 50 mg/kg BID): parasite free on day 5; mice remaining parasite free through day 7 ([9]; 100 mg/kg BID, parasites reemerged on day 9): 4/5; parasite clearance (in words) ([9]; 100 mg/kg QD): parasite free on day 5; ED50 ([9]; Plasmodium berghei, in Mus musculus, po, read-out: ED50 95% confidence interval): 7.6 to 13 mg/kg; adverse reactions attributed to drug ([9]; any of the dose levels, efficacy study in mice): No adverse reactions; Time above 1 μM ([6]; 20 mg/kg): 19 h; adverse reactions following IV or oral administration ([10]; either dose route): No adverse reactions; clearance ([10]; 0.9 mg/kg): 2.3 mL/min/kg; clearance ([10]; 2.9 mg/kg): 1.5 mL/min/kg; binding to rat plasma proteins [11]: 97.3%"
"Cc1cc(Nc2ccc3c(c2)CCCC3)n2ncnc2n1 [Compound 33, 5-methyl-N-(5,6,7,8-tetrahydronaphthalen-2yl)-[1,2,4]triazolo[1,5-a]pyrimidin-7-amine]",95.5%,89 to 179 µM,,,,> 30 µL/min/mg,> 30 µL/min/mg,pIC50 [8]: 7.46; pIC50 ([8]; stated in text): > 7.00 and ~7.52
"Cc1cc(Nc2ccc3c(c2)CCC3)n2ncnc2n1 [Compound 34, N-(2,3-dihydro1H-inden-5-yl)-5-methyl-[1,2,4]triazolo[1,5-a]pyrimidin-7-amine]",92.5%,47 to 94 µM,0.81,,0.94,,,
"Cc1cc(Nc2ccc3sccc3c2)n2ncnc2n1 [Compound 36, N-(Benzo[b]thiophen-5yl)-5-methyl-[1,2,4]triazolo[1,5-a]pyrimidin-7-amine]",89.8%,22 to 44 µM,,,,> 30 µL/min/mg,> 30 µL/min/mg,pIC50 ([8]; stated in text): > 7.00; Time above 1 μM [6]: <1 h
"Cc1cc(NC2Cc3ccccc3C2)n2ncnc2n1 [Compound 45, N-(2,3-Dihydro-1H-inden-2-yl)-5-methyl-[1,2,4]triazolo[1,5-a]pyrimidin-7-amine]",76.1%,188 to 376 µM,< 0.2,highly soluble,0.59,< 10 µL/min/mg,> 25 µL/min/mg,Time above 1 μM [6]: <1 h
"Cc1cc(NC2CCc3ccccc3C2)n2ncnc2n1 (stereo not shown) [Compound 49, 5-Methyl-N-(1,2,3,4-tetrahydronaphthalen-2-yl)-[1,2,4]triazolo[1,5-a]pyrimidin-7-amine]",,,< 0.2,highly soluble,0.61,< 10 µL/min/mg,> 25 µL/min/mg,
"CCN(CC)CCCC(C)Nc1ccnc2cc(Cl)ccc12 (stereo not shown) [chloroquine, reference compound]",,,,,,,,"ED50 in this model ([3]; previous reports, ref [20]): ~2 mg/kg"
